# Legend:
# [1] = target: T1, HIV-1 p7NC protein (Human immunodeficiency virus type 1 group M subtype B, UniProt P04591); experiment: TSQ zinc release assay from p7NC; format: biochemical; conditions: 10 μM, 2 hours, FIG. 1(B), in words
# T1 construct: recombinant HIV-1 p7NC protein
# Protocol: Fluorescence measurements of the Trp^37 residue in the C-terminal zinc finger of the recombinant HIV-1 p7NC protein were performed as previously described (Rice et al., Science 270:1194, 1995). The p7NC protein was prepared at 20 μg/ml in 10 mM sodium phosphate buffer (pH 7.0), treated with 25 μM of each compound, then after indicated time intervals the samples were diluted 1/10 in 10 mM sodium phosphate buffer (pH 7.0) and the fluorescence intensity measured. The excitation and emission wavelengths utilized with the Shimadzu RF5000 spectrofluorimeter were 280 nm and 351 nm, respectively. In an alternate assay, the zinc-selective fluorescent probe N-(6-methoxy-8quinolyl-)-p-toluenesulfonamide (TSQ, Molecular Probes, Eugene, Oreg.) originally described by Fredrickson (J. Neurosci. Meth. 20:91, 1987) was utilized to measure zinc released from the p7NC protein in vitro. Briefly, 2 μM recombinant HIV-1 p7NC protein in 10 mM sodium phosphate buffer, pH 7.0, 10% glycerol was treated with 10 μM 624151 ([…] total volume in 96-well plates), and the time-dependent increase in fluorescence was measured on a Labsystems Fluoroskan II (360 nm excitation filter and 460 nm emission filter) over a period of 2 hours. […] Virus pellets were resolved by non-reducing SDS-PAGE and analyzed by immunoblot using monospecific rabbit antisera to the purified p7NC protein. […]
# [2] = system: HIV-1 from latently infected U1 cells; experiment: virus production from TNF-α stimulated latently infected U1 cells; format: cell-based; conditions: FIG. 3(A); for formation of infectious virus from infected cells: in words
# Protocol: U1 cells latently infected with two copies of HIV-1 proviral DNA per cell (Clous et al., J. Immunol. 142: 431-438, (1989)) were treated with 5 ng/ml tumor necrosis factor-α(TNF-α) for 24 hours to stimulate production of HIV-1 virions, after which various concentrations of 624151 were added to the cultures and incubated for an additional 48 hours. Cultures were analyzed for cell viability by the XTT reduction assay and cells were counted and scored for viability by trypan blue exclusion. Cells pellets were lysed (0.5% Triton X-100, 300 mM NaCl, 50 mM Tris-HCl, pH 7.6, 10 μg/ml each of Leupeptin and aprotinin (Boehringer Mannheim), 1.8 mg/ml iodoacetamide (Sigma Chemical Co., St. Louis, Mo.) and 1.0 mg/ml the protease inhibitor Pefabloc SC (Boehringer Mannheim at 4° C. for 15 min. and then quantitated for viral p24 content by ELISA. Cell-free supernatant samples were collected and analyzed for virus content by p24 ELISA, and infectivity in cultures of 174xCEM cells. Briefly, serial 1/2 dilutions of the supernatant were placed with 5×10^3 174xCEM cells and cultured for 7 days, cell supernatants were analyzed for viral p24 content, and the number of infectious units/ml calculated. In addition, cell free supernatants were centrifuged at 17,000×g for 1 hour at 4° C. to collect virion pellets. Proteins from both the virion and cellular lysates were separated by 4-20% SDS-PAGE (50 μg protein per lane), blotted onto PVDF membranes, reacted with anti-p7 and anti-p24 antisera, and then probed with HRP-conjugated goat anti-rabbit IgG and subsequently viewed with Western Blot Chemiluminescence Reagent (Dupont NEN, Wilmington, Del.).
# Once proviral DNA has integrated into the cellular DNA, compounds that act on replicative events during the pre-integrative phase of infection are without effect. However, the zinc fingers as a part of the Pr55^gag and Pr160^gag-pol participate in the post-integrative phase production of progeny infectious virions, and the zinc finger-reactive 624151 should affect those functions. To test this possibility, we evaluated the effects of 624151 on cell viability and the production of viral proteins and infectious virions from U1 cells that latently harbor two copies of HIV-1 proviral DNA. Stimulation of U1 cells with TNF-α results in the production of high levels of p24 and infectious virions.
# [3] = target: T1, HIV-1 p7NC protein; experiment: Trp37 zinc finger fluorescence assay (zinc ejection from p7NC); format: biochemical; conditions: for p7NC Trp37 Assay (RFU): 25 μM compound; for loss of Trp37 fluorescence of p7NC: 25 μM
# Protocol: Fluorescence measurements of the Trp^37 residue in the C-terminal zinc finger of the recombinant HIV-1 p7NC protein were performed as previously described (Rice et al., Science 270:1194, 1995). The p7NC protein was prepared at 20 μg/ml in 10 mM sodium phosphate buffer (pH 7.0), treated with 25 μM of each compound, then after indicated time intervals the samples were diluted 1/10 in 10 mM sodium phosphate buffer (pH 7.0) and the fluorescence intensity measured. The excitation and emission wavelengths utilized with the Shimadzu RF5000 spectrofluorimeter were 280 nm and 351 nm, respectively. In an alternate assay, the zinc-selective fluorescent probe N-(6-methoxy-8quinolyl-)-p-toluenesulfonamide (TSQ, Molecular Probes, Eugene, Oreg.) originally described by Fredrickson (J. Neurosci. Meth. 20:91, 1987) was utilized to measure zinc released from the p7NC protein in vitro. Briefly, 2 μM recombinant HIV-1 p7NC protein in 10 mM sodium phosphate buffer, pH 7.0, 10% glycerol was treated with 10 μM 624151 ([…] total volume in 96-well plates), and the time-dependent increase in fluorescence was measured on a Labsystems Fluoroskan II (360 nm excitation filter and 460 nm emission filter) over a period of 2 hours. Induction of alterations of p7NC proteins within intact virions involved treatment of HIV-1MN for 1 hour at 37° C. with 25 μM test compound. Samples were centrifuged 1 hour at 4° C. under 18,000×g to pellet the virus from the drug. Virus pellets were resolved by non-reducing SDS-PAGE and analyzed by immunoblot using monospecific rabbit antisera to the purified p7NC protein.
# ^b The percent decrease in RFU was calculated based on measurement of
# the initial fluorescence of the p7NC protein before and 10 minutes after
# treatment with the 25 μM of compound at ambient temperature.
# The ability of 624151 to chemically interact with the zinc fingers of the HIV-1 p7NC protein was initially determined by a fluorescence assay (Rice et al., Science 270:1194-1197, (1995)) that measures a loss in intrinsic fluorescence of the tryptophan (Trp^37) residue in the second finger of the protein that occurs upon loss of zinc from the finger (Summers et al., Protein Sci. 1:563, 1992). […] As the 624151 modifies the zinc finger thiolates and the zinc is ejected over time, the metal is bound by the TSQ fluorochrome (FIG. 1(B)).
# Sodium Phosphate buffer, pH 7.0 in 1 ml was treated with 25 μM of
# compound. At indicated times, the mixture was diluted 1/10 and the
# relative fluorescence units (RFU) measured in a Shimadzu RF5000
# spectrofluorimeter with […] and Em = 351 mn. Following
# loss of zinc from the Cterminal zinc finger, the Trp37 residue folds away
# from the # aqueous environment and experiences a loss of fluorescence.
smiles,measurement,setting,value
"O=S1(=O)C[C@H](O)[C@H](O)CS1 (relative stereo) [NSC 624151, cis-1,1-dioxo[1,2]dithiane-4,5-diol]",zinc ejection from p7NC measured with TSQ,[1],promote zinc ejection from the p7NC protein in vitro was confirmed
same,formation of infectious virus from infected cells,[2],inhibition of the formation of infectious virus from HIV-1 infected cells
same,formation of infectious virus from infected cells,[2]; listed as 624151,prevention of the formation of infectious virus from previously infected cells
same,minimal effective concentration,"[2]; Human immunodeficiency virus 1, 48 h, TNF-α stimulated U1 cells, read-out: concentration (as low as) at which infectious titer of released virions was effectively reduced",3 µM
same,levels of intracellular or extracellular viral p24,[2]; TNF-α stimulated U1 cells,did not dramatically reduce the levels of intracellular or extracellular viral p24
same,p7NC Trp37 Assay (RFU),[3]; 0 min,295 RFU
same,p7NC Trp37 Assay (RFU),[3]; 3 min,136 RFU
same,p7NC Trp37 Assay (RFU),[3]; 10 min,75 RFU
same,p7NC Trp37 Assay (RFU),[3]; 30 min,42 RFU
same,loss of Trp37 fluorescence of p7NC,"[3]; FIG. 1(A), in words",time dependent loss of fluorescence
same,loss of Trp37 fluorescence of p7NC,"[3]; FIG. 1(A), in words, listed as 624151",time-dependent loss of fluorescence
same,zinc ejection,"[3]; FIG. 1(A), in words",promotes zinc ejection
same,reactivity with the zinc fingers,[3]; in words,reacted aggressively with the p7NC protein zinc fingers

# Reference: patent US6046228A, “Anti-viral pharmaceutical compositions containing saturated 1,2-dithiaheterocyclic compounds and uses thereof” (priority 1999, dated 2000)
